According to PMC11374673, “Discovery of isoquinoline sulfonamides as allosteric gyrase inhibitors with activity against fluoroquinolone-resistant bacteria” (Nature Chemistry, 2024):
In brackets after ≈: the same amount, converted by molar mass. Like-named read-outs stand apart in the source and are kept apart here.

What was measured:
E. coli W3110 = test: MIC by broth microdilution; assay type: cell-based, Escherichia coli; conditions: for antimicrobial activity: relative to parent compound
Protocol: (§1) MIC was determined by broth microdilution. Single-colony cultures were grown to exponential phase (OD600 of 0.5) aerobically at 37 °C. In case of strains from the Keio collection, 50 µg ml^−1 kanamycin was supplemented to the media to ascertain a homogeneous population. The bacterial suspensions were diluted 100-fold in CAMHB and 50 µl was added to a twofold serial dilution series of test compounds (50 µl per well) in polypropylene 96-well microtitre plates to reach a volume of 100 µl. The plates were sealed with breathable membranes and incubated overnight at 37 °C with constant shaking (600 r.p.m.).

E. coli BW25113 = test: Bacterial cytological profiling (BCP); assay type: cell-based, Escherichia coli; conditions: BCP; for DIC angularity: 2 h, AMP 12.5, RIF 12.5, TET 6.25, CIP 0.0625, LEI-801 6.25, LEI-800 6.25 µM, average ± SD of 3 replicates; for DAPI intensity / SYTOX Green intensity: standardized to DMSO control
Protocol: Overnight E. coli BW25113 cultures were diluted 1:100 in fresh LB medium in a 100 ml Erlenmeyer flask and incubated at 120 r.p.m. and 37 °C. When OD600 >0.2, the cultures were diluted to OD600 of 0.1 in fresh LB medium with a final volume of 200 µl in a 2 ml Eppendorf tube. The appropriate antibiotic or control treatment was applied and the samples were incubated at 200 r.p.m. and 30 °C for 2 h. Subsequently, 4,6-diamidino-2-phenylindole (DAPI) (2 µg ml^−1), FM4-64 (2 µg ml^−1) and SYTOX Green (0.5 µM) were added to reach the desired concentration and the samples were incubated a further 10 min. The samples were then centrifuged at 3,300g for 50 s and the pellets resuspended in half the original volume. From this suspension, 5 µl was spotted onto a 2.0% agarose pad for microscopy.
Microscopy was performed on a Zeiss Axio Observer Z1/7 inverted microscope.
For the qualitative assessment of the bacterial morphology, the acquired images were first pre-processed in ImageJ (v1.53m)[47]. Thereafter the brightness and contrast were adjusted to allow the clearest visual inspection of the particular phenotype. For the quantitative BCP, DIC images were first pre-processed and then a random forest classifier was trained with Illastik (v1.3.3)[48] to generate a segmented image. These binary masks were then combined together with the original DIC image and processed with the ImageJ plugin MicrobeJ (v 5.13l)[49]. MicrobeJ generated cell outlines and performed measurements on cell shape accordingly. The recorded cell outlines produced by MicrobeJ were exported and used as a guide to characterize the DNA shape within each bacterium using a custom-made ImageJ macro (Appendix II). DAPI and SYTOX Green intensity were measured on raw images in a similar manner. Then, by hand, polygons were drawn that excluded bacteria to determine background intensity. After background correction the intensity was standardized to the DMSO control within the same biological replicate. For PCA, the BCP assay was executed for three independently biological replicates. During each experiment, images were acquired until 24 or more bacteria in total had been observed. Following feature extraction for each replicate, principal component analysis was performed using GraphPad Prism (v9.0.0) using multiple variable analysis with standardized data. Principal components (PCs) were selected based on the per cent of total explained variance (minimum 80%).

K. pneumoniae ATCC 29665 = test: MIC by broth microdilution; assay type: cell-based, Klebsiella pneumoniae; conditions: read-out: MIC K. pneumoniae ATCC 29665
Protocol: as §1

[1] = Escherichia coli, W3110, follow-up of the 12 library hits, read-out: MIC E. coli
[2] = Klebsiella pneumoniae, ATCC29665, broth microdilution
[3] = Escherichia coli, W3110, WT, broth microdilution, read-out: MIC E. coli W3110
[4] = WT, broth microdilution, read-out: MIC E. coli W3110

SMILES: Nc1ccc2c(N3CCC(COc4ccccn4)CC3)ncnc2n1 [AJ358]
- MIC (E. coli W3110; [1]): > 50 µM

SMILES: CC1(C)S[C@@H]2[C@H](NC(=O)[C@H](N)c3ccccc3)C(=O)N2[C@H]1C(=O)O [AMP, ampicillin, reference compound]
- DAPI circularity (E. coli BW25113): 0.173 ± 0.043
- DAPI nucleoid area (E. coli BW25113): 9.445 ± 2.853
- DAPI nucleoids (E. coli BW25113): 2.583 ± 0.910
- DAPI perimeter (E. coli BW25113): 30.886 ± 6.792
- DAPI roundness (E. coli BW25113): 0.108 ± 0.020
- DAPI solidity (E. coli BW25113): 0.603 ± 0.036
- DAPI total area (E. coli BW25113): 19.710 ± 4.300
- DIC area (E. coli BW25113): 31.597 ± 3.284
- DIC circularity (E. coli BW25113): 0.144 ± 0.015
- DIC curvature (E. coli BW25113): 0.024 ± 0.004
- DIC feret (E. coli BW25113): 26.883 ± 3.012
- DIC length (E. coli BW25113): 27.774 ± 3.16
- DIC perimeter (E. coli BW25113): 56.849 ± 6.297
- DIC roundness (E. coli BW25113): 0.066 ± 0.008
- DIC sinuosity (E. coli BW25113): 1.033 ± 0.002
- DIC solidity (E. coli BW25113): 0.538 ± 0.044
- DIC width (E. coli BW25113): 1.143 ± 0.051
- Decondensation (E. coli BW25113): 0.619 ± 0.078
- DIC angularity (E. coli BW25113): 0.069 ± 0.009
- DAPI intensity (E. coli BW25113): 1.490 ± 0.410
- SYTOX Green intensity (E. coli BW25113): 1.901 ± 0.246

SMILES: Nc1ccccc1S(=O)(=O)NCCNC/C=C/c1ccc(-c2cccnc2)cc1 [BB064]
- MIC (E. coli W3110; [1]): > 50 µM

SMILES: O=S(=O)(NCCNCCc1ccc(-c2cccnc2)cc1)c1cccc2cnccc12 [BB077]
- MIC (E. coli W3110; [1]): > 50 µM

SMILES: O=S(=O)(NCCNCc1ccc(-c2cccnc2)cc1)c1cccc2ccccc12 [Compound 47]
- MIC (K. pneumoniae ATCC 29665; [2]): > 50 µM
- MIC (K. pneumoniae ATCC 29665; broth microdilution): 50 µM (≈ 20.9 µg/mL)
- MIC (E. coli W3110; [3]): 25 µM (≈ 10.4 µg/mL)
- antimicrobial activity (E. coli W3110): fourfold reduced activity

SMILES: O=S(=O)(NCCNCc1ccc(-c2cccnc2)cc1)c1ccccc1 [Compound 48]
- MIC (K. pneumoniae ATCC 29665; [2]): > 50 µM
- MIC (K. pneumoniae ATCC 29665; broth microdilution): >50 µM
- MIC (E. coli W3110; [3]): > 50 µM
- MIC (E. coli W3110; [4]): >50 µM
- antimicrobial activity (E. coli W3110): lost all activity

SMILES: O=S(=O)(NCCNCc1ccc(-c2cccnc2)cc1)c1cccc2[nH]ncc12 [Compound 49]
- MIC (K. pneumoniae ATCC 29665; [2]): > 50 µM
- MIC (K. pneumoniae ATCC 29665; broth microdilution): >50 µM
- MIC (E. coli W3110; [3]): > 50 µM
- MIC (E. coli W3110; [4]): >50 µM

SMILES: O=S(=O)(NCCNCc1ccc(-c2cccnc2)cc1)c1ccc2cn[nH]c2c1 [Compound 50]
- MIC (K. pneumoniae ATCC 29665; [2]): > 50 µM
- MIC (K. pneumoniae ATCC 29665; broth microdilution): >50 µM
- MIC (E. coli W3110; [3]): > 50 µM
- MIC (E. coli W3110; [4]): >50 µM

SMILES: CNC(=O)c1ccc(S(=O)(=O)NCCNCc2ccc(-c3cccnc3)cc2)cn1 [Compound 51]
- MIC (K. pneumoniae ATCC 29665; [2]): > 50 µM
- MIC (K. pneumoniae ATCC 29665; broth microdilution): >50 µM
- MIC (E. coli W3110; [3]): > 50 µM
- MIC (E. coli W3110; [4]): >50 µM

SMILES: O=S(=O)(NCCNCc1ccc(-c2cccnc2)cc1)c1ccnc2[nH]ccc12 [Compound 54]
- MIC (K. pneumoniae ATCC 29665; [2]): > 50 µM
- MIC (K. pneumoniae ATCC 29665; broth microdilution): >50 µM
- MIC (E. coli W3110; [3]): > 50 µM
- MIC (E. coli W3110; [4]): >50 µM

SMILES: Nc1cc2c(S(=O)(=O)NCCNCc3ccc(-c4cccnc4)cc3)cccc2cn1 [Compound 55]
- MIC (K. pneumoniae ATCC 29665; [2]): > 50 µM
- MIC (K. pneumoniae ATCC 29665; broth microdilution): >50 µM
- MIC (E. coli W3110; [3]): > 50 µM
- MIC (E. coli W3110; [4]): >50 µM

SMILES: Cc1ccc(-c2ccc(CNCCNS(=O)(=O)c3cccc4cnccc34)cc2)cc1 [Compound 62]
- MIC (K. pneumoniae ATCC 29665; [2]): > 50 µM
- MIC (K. pneumoniae ATCC 29665; broth microdilution): >50 µM
- MIC (E. coli W3110; [3]): > 50 µM
- MIC (E. coli W3110; [4]): >50 µM

SMILES: O=S(=O)(NCCNCc1ccc(-c2ccc(C(F)(F)F)cc2)cc1)c1cccc2cnccc12 [Compound 64]
- MIC (K. pneumoniae ATCC 29665; [2]): > 50 µM
- MIC (K. pneumoniae ATCC 29665; broth microdilution): >50 µM
- MIC (E. coli W3110; [3]): > 50 µM
- MIC (E. coli W3110; [4]): >50 µM

SMILES: O=S(=O)(NCCNCc1ccc(-c2ccncc2)cc1)c1cccc2cnccc12 [Compound 65]
- MIC (K. pneumoniae ATCC 29665; [2]): 25 µM (≈ 10.5 µg/mL)
- MIC (E. coli W3110; [3]): 12.5 µM (≈ 5.23 µg/mL)

SMILES: O=S(=O)(NCCNCc1ccc(-c2cccc(F)c2)cc1)c1cccc2cnccc12 [Compound 66]
- MIC (K. pneumoniae ATCC 29665; [2]): 25 µM (≈ 10.9 µg/mL)
- MIC (E. coli W3110; [3]): 12.5 µM (≈ 5.44 µg/mL)

SMILES: Cc1cccc(-c2ccc(CNCCNS(=O)(=O)c3cccc4cnccc34)cc2)c1 [Compound 67]
- MIC (K. pneumoniae ATCC 29665; [2]): > 50 µM
- MIC (K. pneumoniae ATCC 29665; broth microdilution): >50 µM
- MIC (E. coli W3110; [3]): > 50 µM
- MIC (E. coli W3110; [4]): >50 µM

SMILES: N#Cc1cccc(-c2ccc(CNCCNS(=O)(=O)c3cccc4cnccc34)cc2)c1 [Compound 68]
- MIC (K. pneumoniae ATCC 29665; [2]): 25 µM (≈ 11.1 µg/mL)
- MIC (E. coli W3110; [3]): 12.5 µM (≈ 5.53 µg/mL)

SMILES: O=S(=O)(NCCNCc1ccc(-c2cccc(C(F)(F)F)c2)cc1)c1cccc2cnccc12 [Compound 69]
- MIC (K. pneumoniae ATCC 29665; [2]): > 50 µM
- MIC (K. pneumoniae ATCC 29665; broth microdilution): >50 µM
- MIC (E. coli W3110; [3]): 25 µM (≈ 12.1 µg/mL)

SMILES: O=S(=O)(NCCNC/C=C/c1ccccc1-c1ccc2c(c1)OCO2)c1cccc2cnccc12 [Compound 97i]
- MIC (E. coli W3110; [1]): > 50 µM

SMILES: Cc1ccc(S(=O)(=O)N[C@@H]2C(=O)c3cc(C)ccc3O[C@H]2C)cc1 [IMI1517570]
- MIC (E. coli W3110; [1]): 25 µM (≈ 8.64 µg/mL)

SMILES: CN(C)CCCN1c2ccccc2Sc2ccc(Cl)cc21 [MB053]
- MIC (E. coli W3110; Escherichia coli, W3110, read-out: MIC E. coli): > 50 µM

SMILES: CO[C@H]1/C=C/O[C@@]2(C)Oc3c(C)c(O)c4c(O)c(c(/C=N/N5CCN(C)CC5)c(O)c4c3C2=O)NC(=O)/C(C)=C\C=C\[C@H](C)[C@H](O)[C@@H](C)[C@@H](O)[C@@H](C)[C@H](OC(C)=O)[C@@H]1C [RIF, rifampicin, reference compound]
- DAPI circularity (E. coli BW25113): 0.637 ± 0.019
- DAPI nucleoid area (E. coli BW25113): 4.992 ± 0.606
- DAPI nucleoids (E. coli BW25113): 1.120 ± 0.069
- DAPI perimeter (E. coli BW25113): 9.927 ± 0.636
- DAPI roundness (E. coli BW25113): 0.408 ± 0.029
- DAPI solidity (E. coli BW25113): 0.918 ± 0.003
- DAPI total area (E. coli BW25113): 5.402 ± 0.548
- DIC area (E. coli BW25113): 5.883 ± 0.716
- DIC circularity (E. coli BW25113): 0.642 ± 0.053
- DIC curvature (E. coli BW25113): 0.092 ± 0.018
- DIC feret (E. coli BW25113): 4.608 ± 0.076
- DIC length (E. coli BW25113): 4.635 ± 0.073
- DIC roundness (E. coli BW25113): 0.370 ± 0.047
- DIC sinuosity (E. coli BW25113): 1.017 ± 0.003
- DIC solidity (E. coli BW25113): 0.956 ± 0.014
- DIC width (E. coli BW25113): 1.327 ± 0.161
- Decondensation (E. coli BW25113): 0.922 ± 0.075
- DIC angularity (E. coli BW25113): 0.101 ± 0.016
- DAPI intensity (E. coli BW25113): 0.704 ± 0.260
- SYTOX Green intensity (E. coli BW25113): 2.120 ± 0.434

SMILES: O=S(=O)(NCCNCCCc1ccc(-c2cccnc2)cc1)c1cccc2cnccc12 [SG145]
- MIC (E. coli W3110; [1]): > 50 µM

SMILES: O=S(=O)(NCCNC/C=C/c1ccc(-c2cccnc2)cc1)c1ccc2[nH]ncc2c1 [SG170]
- MIC (E. coli W3110; [1]): > 50 µM

SMILES: O=S(=O)(NCCNC/C=C/c1ccc(-c2cccnc2)cc1)c1ccc2cn[nH]c2c1 [SG171]
- MIC (E. coli W3110; [1]): > 50 µM

SMILES: O=S(=O)(NCCNC/C=C/c1ccc(-c2cccnc2)cc1)c1cccc2[nH]ncc12 [SG176]
- MIC (E. coli W3110; [1]): > 50 µM

SMILES: Nc1cc2c(S(=O)(=O)NCCNC/C=C/c3ccc(-c4cccnc4)cc3)cccc2cn1 [SG181]
- MIC (E. coli W3110; [1]): > 50 µM
